In patent US20110219476A1, “GLUCURONYL TRANSFERASE AND POLYNUCLEOTIDE ENCODING THE SAME” (priority 2008, published 2011):

Tests used:
[1] = target: T1, flavonoid 7-O-glucuronosyltransferase VpF7GAT (Veronica persica, UniProt C0STS8); test: Selectivity of VpF7GAT to glycosyl acceptor substrates (glycosyl donor: UDP-glucuronic acid); assay type: biochemical; details: for activity of VpF7GAT with the glycosyl acceptor substrate (in words, summary in the description): compared to other glycosyl acceptor substrates; for relative activity of glycosyl acceptor substrate / glucuronosyltransferase activity (in words): glycosyl donor UDP-glucuronic acid; for relative activity of glycosyl acceptor substrate: activity to apigenin made 100%, FIG. 3; for glucuronosyltransferase activity (in words): reaction conditions for this enzyme
T1 sequence (C0STS8 entry or part of it): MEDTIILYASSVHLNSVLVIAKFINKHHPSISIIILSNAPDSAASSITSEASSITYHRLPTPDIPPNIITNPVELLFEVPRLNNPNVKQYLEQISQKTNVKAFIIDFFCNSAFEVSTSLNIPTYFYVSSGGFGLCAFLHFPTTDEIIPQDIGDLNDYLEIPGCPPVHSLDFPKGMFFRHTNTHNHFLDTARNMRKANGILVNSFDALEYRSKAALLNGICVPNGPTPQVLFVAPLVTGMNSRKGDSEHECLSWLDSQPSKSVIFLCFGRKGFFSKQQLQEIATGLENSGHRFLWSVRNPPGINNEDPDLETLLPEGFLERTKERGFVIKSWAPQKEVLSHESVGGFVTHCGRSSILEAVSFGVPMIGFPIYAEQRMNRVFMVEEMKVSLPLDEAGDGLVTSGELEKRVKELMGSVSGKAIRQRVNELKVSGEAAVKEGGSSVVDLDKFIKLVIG
Procedure: (§1) Standard reaction conditions are as follows. […] The mixture was reacted at 30° C. for 1 minute. The reaction was then terminated by adding 50 μl of CH3CN containing 0.5% TFA. The product was analyzed by reversed phase HPLC (LC-2010 System, Shimadzu Corporation).
(§2) The conditions for HPLC are as follows. Develosil C30-UG-5 column (4.6 mm×150 mm, Nomura Chemical) was used with a column oven at 40° C., and the moving phase A (0.1% TFA/H2O) and the moving phase B (0.1% TFA/90% CH3CN) were used. The conditions for elution include a linear density gradient (B20%→B70%) for 15 minutes, then retention with B70% for further 1 minute and again reverting to B20%, followed by equilibration for 20 minutes. HPLC was performed at the flow of 1 ml/min. Detection was performed at 280 and 360 nm using a SPD-M10A Photodiode Array Detector (Shimadzu Corporation).

[2] = target: T1, flavonoid 7-O-glucuronosyltransferase VpF7GAT; details: glycosyl acceptor substrate apigenin; activity of UDP-glucuronic acid made 100%
Procedure: as §1, §2

Row | SMILES | activity of VpF7GAT with the glycosyl acceptor substrate (in words, summary in the description) [1] | relative activity of glycosyl acceptor substrate [1] [%] | relative activity of UDP glycosyl donor [2] [%] | glucuronosyltransferase activity (in words) [1]
1 | O=C1C[C@@H](c2ccc(O)cc2)Oc2cc(O)cc(O)c21 [naringenin] | strong | 18.0 |  | 
2 | COc1cc(-c2cc(=O)c3c(O)cc(O)cc3o2)ccc1O [chrysoeriol] | strong | 34.0 |  | 
3 | O=C(O)[C@H]1O[C@H](OP(=O)(O)OP(=O)(O)OC[C@H]2O[C@@H](n3ccc(=O)[nH]c3=O)[C@H](O)[C@@H]2O)[C@H](O)[C@@H](O)[C@@H]1O [UDP-glucuronic acid] |  |  | 100 | 
4 | O=c1c(O)c(-c2ccc(O)c(O)c2)oc2cc(O)cc(O)c12 [quercetin] | shows an activity | 1.0 |  | 
5 | O=c1cc(-c2ccc(O)cc2)oc2cc(O)c([C@@H]3O[C@H](CO)[C@@H](O)[C@H](O)[C@H]3O)c(O)c12 [isovitexin] |  |  |  | not observed
6 | O=c1c(-c2ccc(O)cc2)coc2cc(O)cc(O)c12 [genistein] |  |  |  | not observed
7 | O=c1cc(-c2ccccc2)oc2cc(O)c(O)c(O)c12 [baicalein] | shows an activity | 13.1 |  | 
8 | O=c1ccc2cc(O)c(O)cc2o1 [esculetin] |  |  |  | not observed
9 | COc1ccc(-c2cc(=O)c3c(O)cc(O)cc3o2)cc1O [diosmetin] | strong | 12.9 |  | 
10 | O=c1c(O)c(-c2ccc(O)cc2)oc2cc(O)cc(O)c12 [kaempferol] | strong | 13.3 |  | 
11 | O=c1cc(-c2ccc(O)c(O)c2)oc2c([C@@H]3O[C@H](CO)[C@@H](O)[C@H](O)[C@H]3O)c(O)cc(O)c12 [orientin] |  |  |  | not observed
12 | O=c1cc(-c2ccc(O)cc2)oc2cc(O)c(O)c(O)c12 [scutellarein] |  | 88.3 |  | 
13 | Oc1ccc(C=Cc2cc(O)cc(O)c2)cc1 [resveratrol] |  |  |  | not observed
14 | O=c1cc(-c2ccc(O)cc2)oc2cc(O)cc(O)c12 [apigenin] | strong | 100 |  | 
15 | Oc1cc2c(cc1[C@H]1OC[C@H]3[C@@H]1CO[C@@H]3c1ccc3c(c1)OCO3)OCO2 [sesaminol] |  |  |  | not observed
